ChEMBL document CHEMBL1201862, “PubChem BioAssay data set” (2004)
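How tested: cells in 96-well plates exposed to compound for 48 hours at five concentrations. Abbreviation: GI50, concentration required for 50% inhibition of growth.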 Calls of active or inactive are those of the source. Rule as the data show it: active = GI50 up to about 1.1 µM and inactive = higher.

Experiments:
Test in all cases: NCI anticancer screen, dose series, 48 h
SF-295 = tested on: SF-295
HT-29 = tested on: HT-29
NCI-H226 = tested on: NCI-H226
SK-MEL-28 = tested on: SK-MEL-28
UO-31 = tested on: UO-31
786-0 = tested on: 786-0
SNB-19 = tested on: SNB-19
CCRF-CEM = tested on: CCRF-CEM
SNB-75 = tested on: SNB-75
U-251 = tested on: U-251
SF-539 = tested on: SF-539
SW-620 = tested on: SW-620
SNB-78 = tested on: SNB-78
A549 = tested on: A549
M14 = tested on: M14
NCI/ADR-RES = tested on: NCI/ADR-RES
T47D = tested on: T47D
SR = tested on: SR
MDA-MB-435 = tested on: MDA-MB-435
RXF 393 = tested on: RXF 393

Measured: GI50

CSC(C1c2ccccc2N(C)C2=NC(=O)N(C)C(=O)C21Cl)S(=O)(=O)c1ccc(C)cc1 (stereo not given)
inactive: SF-295 33.6 µM | HT-29 34.1 µM | NCI-H226 > 100 µM | SK-MEL-28 25 µM | UO-31 79.8 µM | 786-0 18.8 µM | SNB-19 64.3 µM | CCRF-CEM 9.04 µM | SNB-75 24 µM | U-251 > 100 µM | SF-539 42 µM | SW-620 26.6 µM | SNB-78 46.9 µM | A549 > 100 µM

CCn1c(=O)nc2n(-c3ccc(SC)cc3)c3ccccc3nc-2c1=O
inactive: SF-295 > 100 µM | NCI-H226 > 100 µM | SK-MEL-28 > 100 µM | UO-31 > 100 µM | 786-0 > 100 µM | SNB-19 > 100 µM | CCRF-CEM > 100 µM | SNB-75 76 µM | U-251 > 100 µM | SF-539 54 µM | SW-620 17.7 µM | M14 > 100 µM | SNB-78 > 100 µM | A549 29.1 µM

O=C(/C(=C\I)c1ccccc1)c1ccccc1
inactive: SF-295 16.9 µM | HT-29 1.93 µM | NCI-H226 24.6 µM | SK-MEL-28 2.16 µM | UO-31 7.78 µM | 786-0 3.52 µM | SNB-19 8.95 µM | CCRF-CEM 14.5 µM | SNB-75 9.42 µM | U-251 2.75 µM | SF-539 15.2 µM | SW-620 4.57 µM | M14 15 µM | NCI/ADR-RES 19.4 µM | T47D 4.14 µM | SR 8.18 µM | MDA-MB-435 12.6 µM | A549 22.4 µM | RXF 393 5.35 µM

COP12(OC)NC(=O)OC1(C(F)(F)F)c1ccccc1O2 (stereo not given)
inactive: SF-295 > 100 µM | HT-29 > 100 µM | NCI-H226 > 100 µM | SK-MEL-28 > 100 µM | 786-0 > 100 µM | SNB-19 > 100 µM | CCRF-CEM > 100 µM | SNB-75 44.9 µM | SF-539 > 100 µM | M14 > 100 µM | SNB-78 > 100 µM | A549 > 100 µM | RXF 393 > 100 µM

C(=C1\CCC/C(=C/c2ccccc2)C1=NNc1ccccc1)/c1ccccc1
inactive: SF-295 > 100 µM | HT-29 > 100 µM | SK-MEL-28 > 100 µM | UO-31 > 100 µM | 786-0 > 100 µM | SNB-19 > 100 µM | CCRF-CEM > 100 µM | SNB-75 87.3 µM | U-251 > 100 µM | SF-539 > 100 µM | SW-620 > 100 µM | M14 > 100 µM | SNB-78 > 100 µM | A549 > 100 µM | RXF 393 38.2 µM
